Earlier results in article PMC2837554 (ChemMedChem, 2010).
pKd: −log10 of the molar value.

What was measured:
aggregated Aβ = settings: reported value

Structure (SMILES)	pKd (Aβ aggregates)	pKd (aggregated Aβ)
CN(C)c1ccc(/C=C/C2=CC(=C/C=C3C=CC(=[N+](C)C)C=C3)/O[B-](F)(F)O2)cc1 [CRANAD-2]	7.42	
Cc1ccc2c(c1)sc(-c1ccc(N(C)C)cc1)[n+]2C [ThT, Thioflavin T]		5.70
